Converted amounts (≈) assume the structure as drawn. Like-named read-outs stand apart in the source and are kept apart here.
Assays:
[1] = tested on: CMV Davis strain; test: Activity against HCMV: virus-induced cytopathicity in HEL cells; format: cell-based, human cytomegalovirus (HCMV); settings: for Antiviral % Inhibition Davis strain: estimate of percent protection of HEL cells at the compound concentration; for IC50: read-out: Antiviral IC50 (μg/ml) Davis strain
Description: Confluent HEL cells grown in […] microtiter plates were inoculated with CMV at an input of 100 PFU (plaque forming units) per well. After a one to two hour incubation period, residual virus was removed and the infected cells were further incubated with MEM (Minimal Essential Medium) (supplemented with 2% inactivated Fetal Calf Serum (FCS), […], and 0.3% sodium bicarbonate) containing varying concentrations of the test compounds. Antiviral activity was expressed as EC50 (50% effective concentration), or test compound concentration required to reduce virus-induced cytopathicity after seven days by 50% compared to the untreated control.
In some cases, the compounds had considerable cytotoxicity against HEL cells, which made determination of the EC50's difficult. In these cases, an estimate of the percent protection at the compound concentration indicated in the previous columns is given.

[2] = tested on: HIV-2 (ROD); test: Inhibition of HIV-2 syncytium formation in CEM cells; format: cell-based; settings: for HIV-2 % Protection: protection of CEM cells against virus-induced cytopathicity at the compound concentration in the previous column; for EC50: Human immunodeficiency virus 2, CCRF-CEM, read-out: EC50 (μg/ml) HIV-2
Text: (§1) The cell type used to determine activity of the compounds of the invention herein, i.e., the test compounds, against HIV was human T-lymphoblast (CEM) cells obtained from the American Tissue Cell Culture Collection (Rockville, Md.). HIV-1 (IIIB) was originally obtained from the culture of persistently HIV-1 infected H9 cells and was provided by R. C. Gallo and M. Popovic (National Cancer Institute, National Institutes of Health, Bethesda, Md.). HIV-2 (ROD) was originally obtained from L. M. Montagnier (Pasteur Institute, Paris, France).
(§2) To determine the antiviral activity of the test compounds, CEM cells were suspended at a cell density of approximately 300,000 cells per ml of culture medium and infected with approximately 100 CClD50 (100 CClD50 being the 50% cell culture infective dose) of HIV-1 (IIIB) or HIV-2 (ROD)). Then 100 μl of the infected cell suspensions was added to 200 μl micro titer plate wells containing 100 μl of appropriate serial (5-fold) dilutions of the test compounds. The inhibitory effect of the test compounds on HIV-1 or HIV-2 syncytium formation in CEM cells was examined microscopically on day four post infection. The 50% effective concentration (EC50) was defined as the test compound concentration that inhibits syncytium formation in the HIV-1 or HIV-2 infected cell cultures by 50%.
(§3) In some cases, the compounds had considerable cytotoxicity to CEM cells which made determination of the EC50 difficult. In these cases, the percent protection of the cells against virus-induced cytopathicity by the test compounds at the indicated compound concentration in the previous column is given.

[3] = tested on: HIV-1 (IIIB); test: Inhibition of HIV-1 syncytium formation in CEM cells; format: cell-based; settings: for HIV-1 % Protection: protection of CEM cells against virus-induced cytopathicity at the compound concentration in the previous column; for EC50: read-out: EC50 (μg/ml) HIV-1
Text: as §1, §2, §3

[4] = CMV-infected HEL cells, virus-induced cytopathicity after seven days
[5] = HIV-1 (IIIB) infected CEM cells, syncytium formation, day four post infection
[6] = HIV-2 (ROD) infected CEM cells, syncytium formation, day four post infection
[7] = Human betaherpesvirus 5, 168 h, CMV-infected HEL cells, virus-induced cytopathicity after seven days
[8] = Human immunodeficiency virus 1, CCRF-CEM, HIV-1 (IIIB) infected CEM cells, syncytium formation, day four post infection
[9] = Human betaherpesvirus 5, HEL, 168 h
[10] = Human immunodeficiency virus 1, IIIB, CCRF-CEM

## 1,4-xylyl-bis-2-sulfonyl pyridine-N-oxide [Compound 23]
[1]; [4]
  Antiviral IC50 (μg/ml) Davis strain: >20 µg/mL
[1]
  Antiviral % Inhibition Davis strain: 20.0%
[2]
  HIV-2 % Protection: 37.5%
[3]
  HIV-1 % Protection: 37.5%

## 1,4[1,2,4,5-tetramethylbenzyl]-bis-(2′-sulfonylpyridine-N-oxide) [Compound 25]
[1]; [4]
  Antiviral IC50 (μg/ml) Davis strain: 16.0 µg/mL
[2]
  HIV-2 % Protection: 37.5%
[3]; [5]
  EC50 (μg/ml) HIV-1: 10.00 µg/mL

## 2-(2,5-dimethylphenyl)methylsulfinyl)pyridine [Compound 163]
[1]; [4]
  Antiviral IC50 (μg/ml) Davis strain: >50 µg/mL
[1]
  Antiviral % Inhibition Davis strain: 0.0%
[2]; [6]
  EC50 (μg/ml) HIV-2: >100 µg/mL
[2]
  HIV-2 % Protection: 0.0%
[3]; [5]
  EC50 (μg/ml) HIV-1: 3.25 µg/mL

## 2-[(3-methoxy-4-benzyloxy)phenylmethylsulfonyl]pyridine-N-oxide [Compound 61]
[1]; [4]
  Antiviral IC50 (μg/ml) Davis strain: 14.0 µg/mL
[2]; [6]
  EC50 (μg/ml) HIV-2: >4.0 µg/mL
[2]
  HIV-2 % Protection: 6.0%
[3]; [5]
  EC50 (μg/ml) HIV-1: >4 µg/mL
[3]
  HIV-1 % Protection: 0.0%

## Cc1ccc(N)cc1C(C)S(=O)(=O)c1cccc[n+]1[O-] (centres unmarked) [Compound 1, 2-[[1-(5-amino-2-methylphenyl)ethyl]sulfonyl]pyridine-N-oxide]
[1]; [7]
  IC50: > 50 µg/mL
[1]
  Antiviral % Inhibition Davis strain: 0.0%
[2]; [6]
  EC50: 41 µg/mL (≈ 140 µM)
[3]; [8]
  EC50: 20 µg/mL (≈ 68.4 µM)

## CCC(C)(C)c1ccc(CS(=O)(=O)c2cccc[n+]2[O-])cc1 [Compound 40, 2-(4′-tert-pentylphenylmethylsulfonyl)pyridine-N-oxide]
[1]; [7]
  IC50: 1.5 µg/mL (≈ 4.7 µM)
[2]; [6]
  EC50: 3.4 µg/mL (≈ 10.6 µM)
[3]; [8]
  EC50: 3.1 µg/mL (≈ 9.7 µM)

## O=S(=O)(Cc1c2ccccc2cc2ccccc12)c1cccc[n+]1[O-] [Compound 51, 2[1-(9-anthryl)methylsulfonyl]pyridine-N-oxide]
[1]; [7]
  IC50: 1.3 µg/mL (≈ 3.72 µM)
[2]; [6]
  EC50: > 0.8 µg/mL
[2]
  HIV-2 % Protection: 0.0%
[3]; [8]
  EC50: > 0.8 µg/mL
[3]
  HIV-1 % Protection: 0.0%

## Cc1ccc([N+](=O)[O-])c(CS(=O)(=O)c2cccc[n+]2[O-])c1 [Compound 62, 2-[[(2-nitro-5-methylphenyl)methyl]sulfonyl]pyridine-N-oxide]
[1]; [7]
  IC50: > 5 µg/mL
[1]
  Antiviral % Inhibition Davis strain: 20.0%
[2]; [6]
  EC50: 5 µg/mL (≈ 16.2 µM)
[3]; [8]
  EC50: 1.9 µg/mL (≈ 6.16 µM)

## CC(C)c1cc(CS(=O)(=O)c2cccc[n+]2[O-])c(C(C)C)cc1Br [Compound 63, 2-[[[2,5-bis(1-methylethyl)-4-bromophenyl]methyl]sulfonyl]pyridine-N-oxide]
[1]; [7]
  IC50: 3.7 µg/mL (≈ 8.97 µM)
[2]; [6]
  EC50: 2.5 µg/mL (≈ 6.06 µM)
[3]; [8]
  EC50: 2.3 µg/mL (≈ 5.58 µM)

## O=[N+]([O-])c1cc(CS(=O)(=O)c2cccc[n+]2[O-])cc([N+](=O)[O-])c1 [Compound 65, 2-[[(3,5-dinitrophenyl)methyl]sulfonyl]pyridine-N-oxide]
[1]; [7]
  IC50: 5 µg/mL (≈ 14.7 µM)
[2]; [6]
  EC50: 3.5 µg/mL (≈ 10.3 µM)
[3]; [8]
  EC50: 2.8 µg/mL (≈ 8.25 µM)

## Cc1cc(CS(=O)(=O)c2cccc[n+]2[O-])ccc1[N+](=O)[O-] [Compound 66, 2-[[(3-methyl-4-nitrophenyl)methyl]sulfonyl]pyridine-N-oxide]
[1]; [7]
  IC50: 5 µg/mL (≈ 16.2 µM)
[2]; [6]
  EC50: 2.5 µg/mL (≈ 8.11 µM)
[3]; [8]
  EC50: 3.1 µg/mL (≈ 10.1 µM)

## Cc1ccc(CS(=O)(=O)c2cccc[n+]2[O-])cc1[N+](=O)[O-] [Compound 67, 2-[[(3-nitro-4-methylphenyl)methyl]sulfonyl]pyridine-N-oxide]
[1]; [7]
  IC50: > 50 µg/mL
[1]
  Antiviral % Inhibition Davis strain: 20.0%
[2]; [6]
  EC50: 2.4 µg/mL (≈ 7.78 µM)
[3]; [8]
  EC50: 2.3 µg/mL (≈ 7.46 µM)

## O=[N+]([O-])c1ccc(CS(=O)(=O)c2cccc[n+]2[O-])c(Cl)c1 [Compound 69, 2-[[(2-chloro-4-nitrophenyl)methyl]sulfonyl]pyridine-N-oxide]
[1]; [7]
  IC50: > 5 µg/mL
[1]
  Antiviral % Inhibition Davis strain: 20.0%
[2]; [6]
  EC50: 2.9 µg/mL (≈ 8.82 µM)
[3]; [8]
  EC50: 2.9 µg/mL (≈ 8.82 µM)

## Cc1ccc(C)c(C(Cl)S(=O)(=O)c2cccc(C)[n+]2[O-])c1 (centres unmarked) [Compound 73, 2-[(2,5-dimethylphenyl)chloromethylsulfonyl]-6-methylpyridine-N-oxide]
[1]; [7]
  IC50: > 20 µg/mL
[1]
  Antiviral % Inhibition Davis strain: 40.0%
[2]; [6]
  EC50: > 100 µg/mL
[2]
  HIV-2 % Protection: 0.0%
[3]; [8]
  EC50: 2.8 µg/mL (≈ 8.59 µM)

## Cc1ccc(C)c(CS(=O)(=O)c2cccc(Cl)[n+]2[O-])c1 [Compound 77, 2-(2,5-dimethylphenylmethylsulfonyl)-6-chloropyridine-N-oxide]
[1]; [7]
  IC50: 11 µg/mL (≈ 35.3 µM)
[2]; [6]
  EC50: > 0.8 µg/mL
[2]
  HIV-2 % Protection: 0.0%
[3]; [8]
  EC50: 0.7 µg/mL (≈ 2.25 µM)

## CCc1cccc2c(C)cc(S(=O)(=O)C(C)c3ccccc3)nc12 (centres unmarked) [Compound 107, 8-ethyl-4-methyl-2-[(1-phenylethyl)sulfonyl]quinoline]
[1]; [7]
  IC50: > 20 µg/mL
[1]
  Antiviral % Inhibition Davis strain: 0.0%
[2]; [6]
  EC50: > 100 µg/mL
[3]; [8]
  EC50: 0.65 µg/mL (≈ 1.91 µM)

## COCC(c1cc(C)ccc1C)S(=O)(=O)c1ccccn1 (centres unmarked) [Compound 123, 2-[[1-(2,5-dimethylphenyl)-2-methoxyethyl]sulfonyl]pyridine]
[1]; [7]
  IC50: > 50 µg/mL
[1]
  Antiviral % Inhibition Davis strain: 40.0%
[2]; [6]
  EC50: > 100 µg/mL
[2]
  HIV-2 % Protection: 0.0%
[3]; [8]
  EC50: 60 µg/mL (≈ 196 µM)

## Cc1ccc(C)c(C(C)S(=O)(=O)c2c(Cl)ccc[n+]2[O-])c1 (centres unmarked) [Compound 124, 3-chloro-2-[[1-(2,5-dimethylphenyl)ethyl]sulfonyl]pyridine-N-oxide]
[1]; [7]
  IC50: > 5 µg/mL
[1]
  Antiviral % Inhibition Davis strain: 10.0%
[2]; [6]
  EC50: > 0.8 µg/mL
[2]
  HIV-2 % Protection: 0.0%
[3]; [8]
  EC50: > 0.8 µg/mL
[3]
  HIV-1 % Protection: 0.0%

## Cc1ccc(C)c(C(Cl)S(=O)(=O)c2c(Cl)ccc[n+]2[O-])c1 (centres unmarked) [Compound 125, 3-chloro-2-[[chloro-(2,5-dimethylphenyl)methyl]sulfonyl]pyridine-N-oxide]
[1]; [7]
  IC50: 31.5 µg/mL (≈ 91 µM)
[2]; [6]
  EC50: > 4 µg/mL
[2]
  HIV-2 % Protection: 0.0%
[3]; [8]
  EC50: > 4 µg/mL
[3]
  HIV-1 % Protection: 0.0%

## [O-][n+]1cccc(Cl)c1SCc1ccccc1 [Compound 132, 3-chloro-2-[(phenylmethyl)thio]pyridine-N-oxide]
[1]; [9]
  IC50: > 50 µg/mL
[1]
  Antiviral % Inhibition Davis strain: 0.0%
[2]
  EC50: > 20 µg/mL
  HIV-2 % Protection: 0.0%
[3]; [10]
  EC50: 2.4 µg/mL (≈ 9.53 µM)

## Cc1ccc(C)c(CSc2c(Cl)ccc[n+]2[O-])c1 [Compound 133, 3-chloro-2-[[(2,5-dimethylphenyl)methyl]thio]pyridine-N-oxide]
[1]; [9]
  IC50: 25 µg/mL (≈ 89.4 µM)
[2]
  EC50: > 20 µg/mL
  HIV-2 % Protection: 0.0%
[3]; [10]
  EC50: 0.14 µg/mL (≈ 0.5 µM)

## COc1ccc(CSc2cc(C(C)(C)C)cc[n+]2[O-])cc1 [Compound 134, 4-(1,1-dimethylethyl)-2-[(4-methoxyphenyl)methylthio]pyridine-N-oxide]
[1]; [7]
  IC50: > 50 µg/mL
[2]; [6]
  EC50: > 100 µg/mL
[2]
  HIV-2 % Protection: 0.0%
[3]; [8]
  EC50: > 20 µg/mL
[3]
  HIV-1 % Protection: 0.0%

## [O-][n+]1cccc(Cl)c1[S+]([O-])Cc1ccccc1 (centres unmarked) [Compound 136, 3-chloro-2-[(phenylmethyl)sulfinyl]pyridine-N-oxide]
[1]; [7]
  IC50: 4.7 µg/mL (≈ 17.6 µM)
[2]; [6]
  EC50: > 4 µg/mL
[2]
  HIV-2 % Protection: 0.0%
[3]; [8]
  EC50: 1.5 µg/mL (≈ 5.6 µM)

## Cc1ccc[n+]([O-])c1SCc1c(Cl)cccc1Cl [Compound 137, 2-[[(2,6-dichlorophenyl)methyl]thio]-3-methyl-pyridine-N-oxide]
[1]; [9]
  IC50: 28 µg/mL (≈ 93.3 µM)
[2]
  EC50: > 20 µg/mL
  HIV-2 % Protection: 0.0%
[3]; [10]
  EC50: > 20 µg/mL
[3]
  HIV-1 % Protection: 0.0%

## Cc1ccc[n+]([O-])c1[S+]([O-])Cc1c(Cl)cccc1Cl (centres unmarked) [Compound 138, 2-[[(2,6-dichlorophenyl)methyl]sulfinyl]-3-methyl-pyridine-N-oxide]
[1]; [7]
  IC50: > 50 µg/mL
[1]
  Antiviral % Inhibition Davis strain: 20.0%
[2]; [6]
  EC50: > 100 µg/mL
[2]
  HIV-2 % Protection: 0.0%
[3]; [8]
  EC50: > 100 µg/mL
[3]
  HIV-1 % Protection: 0.0%

## Cc1ccc[n+]([O-])c1S(=O)(=O)Cc1c(Cl)cccc1Cl [Compound 139, 2-[[(2,6-dichlorophenyl)methyl]sulfonyl]-3-methyl-pyridine-N-oxide]
[1]; [7]
  IC50: 43 µg/mL (≈ 129 µM)
[2]; [6]
  EC50: > 20 µg/mL
[2]
  HIV-2 % Protection: 0.0%
[3]; [8]
  EC50: > 20 µg/mL
[3]
  HIV-1 % Protection: 0.0%
